17 compounds from patent publication US20260109715A1, “IMIDAZOPYRIDINE DERIVATIVES WITH BICYCLIC STRUCTURE” (PUBLIC UNIVERSITY CORPORATION YOKOHAMA CITY UNIVERSITY, priority 2022, published 2026) can be followed below.

A word on the EC50: it is the concentration giving half of the maximal effect. One may read the IC50 as the concentration that gives 50% inhibition.

Like-named read-outs stand apart in the source and are kept apart here.

Test [1] concerns Snhg1 transcript (NMD target gene) in EMT6 murine breast cancer cell line. As to the kind of experiment: Measurement of NMD inhibitory activity in cells (increase in Snhg1 transcript, real-time PCR). Conditions: 6 hours treatment, concentration giving 1/2 of maximum Snhg1 fold change of positive control, read-out: Test Example 2 Cell-based Snhg1 EC50. Also noted: species or system mouse. The method in brief: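 EMT6 cells treated with serially diluted compound (2% DMSO final) for 6 h; Snhg1 transcript quantified by real-time PCR (ΔΔCT, Tbp endogenous control, untreated wells set to 1). EC50 taken as concentration giving half the maximum fold change of a known NMD inhibitor positive control.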
(In general: Real-time PCR tracks product formation cycle by cycle.)

For a further test, the target named is human SMG1 enzyme (Homo sapiens, UniProt Q96Q15). Description: Measurement of SMG1 kinase activity (ADP-Glo Kinase Assay). The class given is biochemical. As to conditions: purified human SMG1 enzyme 5 nM, Upf1 peptide substrate, ATP 4 μM; qAC50 synonymous with IC50; read-out: Test Example 1 ADP-Glo IC50. The method, boiled down: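 ADP-Glo luminescence readout of ADP made by 5 nM human SMG1 acting on 8 μg/mL Upf1 peptide with 4 μM ATP for 60 min at room temperature, after a 15 min enzyme–compound preincubation (1% DMSO; pH 7.5 HEPES, MnCl2). Activity scaled between DMSO and no-enzyme wells; IC50 by four-parameter logistic regression.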
(In ADP-Glo the light output rises with the ADP produced.)

Test [2] concerns Snhg1 transcript in tumor tissues of mice subcutaneously implanted with EMT6 murine breast cancer cell line. Description: Evaluation of NMD inhibitory activity in vivo (Snhg1 transcript in EMT6 tumor tissue after oral administration). Conditions: 6 hours after administration, BALB/c mice. The method, then:
The NMD inhibitory activity of a compound of the present invention or a pharmaceutically acceptable salt thereof in vivo can be measured, for example, by the method described below. Using mice subcutaneously implanted with EMT6 murine breast cancer cell line, tumor tissues 6 hours after oral administration of a test substance are excised, and the increase in Snhg1 transcript is quantified as an indicator of NMD inhibition in the tumor, in the same manner as in the in vitro method.
In this test, NMD inhibitory activity in tumor tissues was evaluated when a test substance was orally administered to mice subcutaneously implanted with EMT6 murine breast cancer cell line. As an indicator of NMD inhibitory activity, the increase in the transcript of Snhg1, an NMD target gene, was quantified. First, BALB/c mice were subcutaneously implanted with EMT6 cells (ATCC), and engraftment was confirmed 7 days later. Six hours after administration of the test substance, mice were euthanized, and the collected tumor tissues were cryopreserved. RNA was extracted from the tumor tissues using the illustra RNAspin Mini RNA Isolation kit (GE Healthcare Life Sciences). After synthesizing cDNA using the High-Capacity cDNA Reverse Transcription Kits (Applied Biosystems, 4368813), the cDNA was mixed with PrimeTime Gene Expression Master Mix (Integrated DNA Technologies) and various probes, and gene expression was quantified by QuantStudio 6 Flex (Thermo Fisher Scientific Inc.). For the probe for the Snhg1 gene, which is an NMD target, Mm.PT.58.44039547 (FAM) (Integrated DNA Technologies) was used, and for the probe for the Gapdh gene, which is an endogenous control, Mm99999915_g2 (VIC-PL) (Applied Biosystems) was used. The relative quantification of Snhg1 transcripts in each sample was calculated by the ΔΔCT method using Gapdh as an endogenous control, and the expression level of Snhg1 in each test substance administration group was calculated by setting the expression level of the Vehicle group (0.5% methylcellulose administration group) to 1.

Chain of human SMG1 enzyme (Q96Q15 whole entry): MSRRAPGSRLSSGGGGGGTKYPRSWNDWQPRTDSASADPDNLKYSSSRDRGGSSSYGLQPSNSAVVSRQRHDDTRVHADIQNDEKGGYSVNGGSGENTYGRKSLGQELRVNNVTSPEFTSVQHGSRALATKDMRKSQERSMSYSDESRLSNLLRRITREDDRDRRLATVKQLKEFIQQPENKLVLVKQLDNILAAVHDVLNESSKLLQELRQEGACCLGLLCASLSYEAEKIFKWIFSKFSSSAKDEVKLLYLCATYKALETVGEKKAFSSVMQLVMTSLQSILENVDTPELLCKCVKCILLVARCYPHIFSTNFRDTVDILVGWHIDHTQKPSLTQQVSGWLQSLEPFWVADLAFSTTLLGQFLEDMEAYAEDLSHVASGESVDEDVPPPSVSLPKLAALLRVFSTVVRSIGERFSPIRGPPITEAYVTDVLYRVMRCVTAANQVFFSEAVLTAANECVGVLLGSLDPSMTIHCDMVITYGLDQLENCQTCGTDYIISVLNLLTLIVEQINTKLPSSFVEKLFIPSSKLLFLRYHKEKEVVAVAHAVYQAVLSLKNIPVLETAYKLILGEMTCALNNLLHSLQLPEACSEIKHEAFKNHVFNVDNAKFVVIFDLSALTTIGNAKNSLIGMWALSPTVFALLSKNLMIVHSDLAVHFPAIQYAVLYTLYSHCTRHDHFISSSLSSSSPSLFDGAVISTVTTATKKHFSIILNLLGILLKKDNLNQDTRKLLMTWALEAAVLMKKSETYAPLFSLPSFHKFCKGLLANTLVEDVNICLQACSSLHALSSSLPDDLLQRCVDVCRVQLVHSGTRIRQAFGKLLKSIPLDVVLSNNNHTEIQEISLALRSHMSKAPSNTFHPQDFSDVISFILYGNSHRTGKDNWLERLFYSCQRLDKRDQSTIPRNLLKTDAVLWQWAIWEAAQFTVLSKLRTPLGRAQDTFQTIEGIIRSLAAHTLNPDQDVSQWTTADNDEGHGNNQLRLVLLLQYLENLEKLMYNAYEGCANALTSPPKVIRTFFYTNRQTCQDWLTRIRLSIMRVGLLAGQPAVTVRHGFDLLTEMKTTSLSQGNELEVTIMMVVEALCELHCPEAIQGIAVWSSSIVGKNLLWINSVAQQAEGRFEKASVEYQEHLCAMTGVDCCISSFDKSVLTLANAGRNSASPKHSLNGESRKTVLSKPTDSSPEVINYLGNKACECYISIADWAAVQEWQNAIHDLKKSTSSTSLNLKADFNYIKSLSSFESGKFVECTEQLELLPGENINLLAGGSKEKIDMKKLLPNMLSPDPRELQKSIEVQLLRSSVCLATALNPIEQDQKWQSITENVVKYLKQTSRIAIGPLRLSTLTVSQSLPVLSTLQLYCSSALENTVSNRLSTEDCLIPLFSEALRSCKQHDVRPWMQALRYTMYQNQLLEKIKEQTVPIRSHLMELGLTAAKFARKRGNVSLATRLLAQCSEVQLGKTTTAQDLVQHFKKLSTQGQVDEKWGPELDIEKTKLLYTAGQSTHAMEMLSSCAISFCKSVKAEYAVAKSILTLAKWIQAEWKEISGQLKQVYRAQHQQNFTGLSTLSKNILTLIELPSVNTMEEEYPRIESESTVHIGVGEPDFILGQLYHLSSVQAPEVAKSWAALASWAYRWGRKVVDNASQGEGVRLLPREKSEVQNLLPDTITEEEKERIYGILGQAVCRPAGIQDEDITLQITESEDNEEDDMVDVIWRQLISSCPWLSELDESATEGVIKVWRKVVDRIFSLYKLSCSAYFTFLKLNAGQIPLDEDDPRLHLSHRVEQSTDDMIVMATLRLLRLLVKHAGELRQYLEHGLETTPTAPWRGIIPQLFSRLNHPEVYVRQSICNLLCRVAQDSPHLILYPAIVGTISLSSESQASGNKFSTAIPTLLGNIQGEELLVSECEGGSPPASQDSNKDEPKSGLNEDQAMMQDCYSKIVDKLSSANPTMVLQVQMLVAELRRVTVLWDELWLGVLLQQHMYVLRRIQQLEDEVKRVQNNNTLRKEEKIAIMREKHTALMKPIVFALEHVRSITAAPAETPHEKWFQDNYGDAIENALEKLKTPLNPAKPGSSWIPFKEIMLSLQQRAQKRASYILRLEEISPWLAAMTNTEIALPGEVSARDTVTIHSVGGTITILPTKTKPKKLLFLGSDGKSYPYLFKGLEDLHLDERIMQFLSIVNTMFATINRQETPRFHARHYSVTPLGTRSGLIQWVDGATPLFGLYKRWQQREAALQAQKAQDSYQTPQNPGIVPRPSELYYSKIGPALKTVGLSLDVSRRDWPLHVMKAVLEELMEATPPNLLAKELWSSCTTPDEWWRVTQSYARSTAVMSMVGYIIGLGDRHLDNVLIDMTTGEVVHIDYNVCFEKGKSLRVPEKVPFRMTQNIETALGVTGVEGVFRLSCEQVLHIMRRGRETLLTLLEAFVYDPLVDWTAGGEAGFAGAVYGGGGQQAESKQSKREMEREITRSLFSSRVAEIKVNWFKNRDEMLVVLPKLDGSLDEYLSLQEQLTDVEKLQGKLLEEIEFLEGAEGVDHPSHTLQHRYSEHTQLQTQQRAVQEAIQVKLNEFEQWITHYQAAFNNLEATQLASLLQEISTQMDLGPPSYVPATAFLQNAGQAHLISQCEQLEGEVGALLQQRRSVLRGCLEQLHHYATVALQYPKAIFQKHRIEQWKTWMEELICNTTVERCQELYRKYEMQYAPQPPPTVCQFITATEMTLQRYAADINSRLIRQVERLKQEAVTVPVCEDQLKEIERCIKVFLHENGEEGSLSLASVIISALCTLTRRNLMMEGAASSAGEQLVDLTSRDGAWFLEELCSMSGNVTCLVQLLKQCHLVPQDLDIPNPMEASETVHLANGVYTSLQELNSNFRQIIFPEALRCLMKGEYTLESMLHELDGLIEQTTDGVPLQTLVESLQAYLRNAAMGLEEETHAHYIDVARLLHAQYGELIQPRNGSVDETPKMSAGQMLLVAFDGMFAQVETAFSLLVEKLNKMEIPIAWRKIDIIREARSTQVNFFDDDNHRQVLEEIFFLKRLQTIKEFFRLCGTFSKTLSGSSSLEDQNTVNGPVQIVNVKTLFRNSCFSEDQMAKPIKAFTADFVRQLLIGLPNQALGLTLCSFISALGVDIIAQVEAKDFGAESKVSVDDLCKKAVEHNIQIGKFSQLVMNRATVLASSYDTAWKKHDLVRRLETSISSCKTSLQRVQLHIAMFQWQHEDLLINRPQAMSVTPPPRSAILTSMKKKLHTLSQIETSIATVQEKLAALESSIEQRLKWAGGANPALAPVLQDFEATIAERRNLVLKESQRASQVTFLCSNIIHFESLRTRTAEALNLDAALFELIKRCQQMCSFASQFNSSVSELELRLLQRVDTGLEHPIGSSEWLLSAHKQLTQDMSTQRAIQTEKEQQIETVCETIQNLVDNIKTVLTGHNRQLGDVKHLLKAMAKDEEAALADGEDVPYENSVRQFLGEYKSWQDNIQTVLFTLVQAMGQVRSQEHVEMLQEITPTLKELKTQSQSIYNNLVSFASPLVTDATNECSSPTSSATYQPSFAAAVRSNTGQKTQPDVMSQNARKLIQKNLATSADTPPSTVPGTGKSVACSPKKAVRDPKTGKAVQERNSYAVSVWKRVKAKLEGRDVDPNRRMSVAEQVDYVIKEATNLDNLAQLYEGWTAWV

Regarding “3-(6-chloro-4-methyl-1H-imidazo[4,5-c]pyridin-2-yl)-5-(2-fluoro-6-methoxyphenyl)-1,6-naphthyridin-2(1H)-one methanesulfonate [Example 130]”, the EC50 in test [1] was determined as 11 nM. The IC50 on human SMG1 enzyme was 1.6 nM. In addition, the Snhg1 fold change in test [2] (10 mg/kg oral) is 9.2.
Take `C[C@@H](Nc1nc(Cl)cc2[nH]c(-c3cc4c(N5CCC(N(C)C)CC5)nccc4[nH]c3=O)nc12)C(F)(F)F` [Example 8, 3-(6-chloro-4-{[(2R)-1,1,1-trifluoropropan-2-yl]amino}-1H-imidazo[4,5-c]pyridin-2-yl)-5-[4-(dimethylamino)piperidin-1-yl]-1,6-naphthyridin-2(1H)-one]: in test [1] (Mus musculus), the EC50 amounted to 36 nM. Besides, the IC50 on human SMG1 enzyme is 1.8 nM. The same compound had a Snhg1 fold change in test [2] (30 mg/kg oral) of 4.1.
Take `CC1(C)CC(O)(c2nc(Cl)cc3[nH]c(-c4cc5cnccc5[nH]c4=O)nc23)CCO1` (stereo not drawn) [Example 19, 3-[6-chloro-4-(4-hydroxy-2,2-dimethyltetrahydro-2H-pyran-4-yl)-1H-imidazo[4,5-c]pyridin-2-yl]-1,6-naphthyridin-2(1H)-one]: the EC50 in test [1] (Mus musculus) came out at 111 nM. The half-inhibitory concentration (IC50) at human SMG1 enzyme came to 2.4 nM. In test [2] (100 mg/kg oral), this compound had a Snhg1 fold change of 7.5.
For the compound `[2H]C([2H])([2H])Oc1ccccc1-c1nccc2[nH]c(=O)c(-c3nc4c(C)nc(Cl)cc4[nH]3)cc12` [Example 26, 3-(6-chloro-4-methyl-1H-imidazo[4,5-c]pyridin-2-yl)-5-{2-[(^2H3)methyloxy]phenyl}-1,6-naphthyridin-2(1H)-one], in test [1] (Mus musculus), the EC50 amounted to 28 nM. Also, at human SMG1 enzyme, the IC50 worked out at 0.99 nM. Further, the Snhg1 fold change in test [2] (10 mg/kg oral) is reported as 12.
Turning to `O=c1[nH]c2ccnc(-c3ccccc3Cl)c2cc1-c1nc2cnc(Cl)cc2[nH]1` [Example 28, 3-(6-chloro-1H-imidazo[4,5-c]pyridin-2-y1)-5-(2-chlorophenyl)-1,6-naphthyridin-2(1H)-one], the 50% effective concentration (EC50) in test [1] (Mus musculus) came out at 78 nM. Moreover, the IC50 at human SMG1 enzyme worked out at 2 nM. Moreover, the Snhg1 fold change in test [2] (25 mg/kg oral) is 8.8.
Regarding `O=C1CS(=O)(=O)c2cccc(c2)-c2nccc3[nH]c(=O)c(cc23)-c2nc3c(nc(Cl)cc3[nH]2)N2CCCN1CC2` [Example 112, 7-chloro-17-thia-3,8,10,14,24,28,35-heptaazaheptacyclo[21.6.2.2^10,14.1^2,5.1^18,22.0^4,9.0^27,31]pentatriacont-1(30)2,4,6,8,18(32),19,21,23(31),24,26-undecaen-15,29-dione17,17-dioxide], in test [1] (Mus musculus), the EC50 is 510 nM. In addition, on human SMG1 enzyme, the half-maximal inhibitory concentration (IC50) is 1.3 nM.
On the same counts, the results for `Cc1nn2c(C)c1-c1nccc3[nH]c(=O)c(cc13)-c1nc3c(nc(Cl)cc3[nH]1)N(C)CCCCN(C)C(=O)C2` [Example 113, 7-chloro-10,15,20,31-tetramethyl-3,8,10,15,18,19,23,27,32-nonaazahexacyclo[20.6.2.1^2,5.1^18,21.0^4,9 .0^26,30]dotriacont-1(29),2,4,6,8,19,21(31),22(30),23,25-decaen-16,28-dione] are 8.3 nM and 0.38 nM.
For `Cc1nn2c(C)c1-c1nccc3[nH]c(=O)c(cc13)-c1nc3c(nc(Cl)cc3[nH]1)N(C)CCCN(C)C(=O)C2C` (stereo not drawn) [Example 114, 7-chloro-10,14,16,19,30-pentamethyl-3,8,10,14,17,18,22,26,31-nonaazahexacyclo[19.6.2.1^2,5.1^17,20.0^4,9.0^25,29]hentriacont-1(28),2,4,6,8,18,20(30),21(29),22,24-decaen-15,27-dione], in that order: 3.2 nM and 1.1 nM.
Take `Cc1nn2c(C)c1-c1nccc3[nH]c(=O)c(cc13)-c1nc3c(nc(Cl)cc3[nH]1)NCC(C)(C)CNC(=O)C2` [Example 115, 7-chloro-12,12,19,30-tetramethyl-3,8,10,14,17,18,22,26,31-nonaazahexacyclo[19.6.2.1^2,5.1^17,20.0^4,9.0^25,29]hentriacont-1(28),2,4,6,8,18,20(30),21(29),22,24-decaen-15,27-dione]: in test [1] (Mus musculus), the EC50 came out at 58 nM. For the same compound, the 50% inhibitory concentration (IC50) on human SMG1 enzyme turned out to be 0.64 nM.
On the same counts, the results for `O=C1CCn2cc(cn2)-c2nccc3[nH]c(=O)c(cc23)-c2nc3c(nc(Cl)cc3[nH]2)N2CCCN1CC2` [Example 116, 7-chloro-3,8,10,14,18,19,23,27,34-nonaazaheptacyclo[20.6.2.2^10,14.1^2,5.1^18,21.0^4,9.0^26,30]tetratriacont-1(29),2,4,6,8,19,21(31),22(30),23,25-decaen-15,28-dione] are 38 nM and 1.2 nM.
`C[C@@H]1C[C@@H](F)CN1c1nc(Cl)cc2[nH]c(-c3cc4c(C5CCOCC5)nccc4[nH]c3=O)nc12` [Example 119, 3-{6-chloro-4-[(2R,4R)-4-fluoro-2-methylpyrrolidin-1-yl]-1H-imidazo[4,5-c]pyridin-2-yl}-5-(tetrahydro-2H-pyran-4-yl)-1,6-naphthyridin-2(1H)-one methanesulfonate]: in test [1] (Mus musculus), the EC50 was 24 nM. For the same compound, at human SMG1 enzyme, the IC50 was found to be 3.4 nM.
On the same counts, the results for `C[C@@H]1C[C@H](O)CN1c1nc(Cl)cc2[nH]c(-c3cc4cnccc4[nH]c3=O)nc12` [Example 120, 3-{6-chloro-4-[(2R,4S)-4-hydroxy-2-methylpyrrolidin-1-yl]-1H-imidazo[4,5-c]pyridin-2-yl}-1,6-naphthyridin-2(1H)-one methanesulfonate] are 37 nM and 0.96 nM.
As to `Cc1nccc2[nH]c(=O)c(-c3nc4c(N5C[C@H](O)C[C@H]5C)nc(Cl)cc4[nH]3)cc12` [Example 121, 3-{6-chloro-4-[(2R,4R)-4-hydroxy-2-methylpyrrolidin-1-yl]-1H-imidazo[4,5-c]pyridin-2-yl}-5-methyl-1,6-naphthyridin-2(1H)-one methanesulfonate], in test [1] (Mus musculus), the EC50 turned out to be 46 nM. Also, the IC50 on human SMG1 enzyme turned out to be 1.4 nM.
For `CCc1nccc2[nH]c(=O)c(-c3nc4c(N5CC[C@H](O)[C@H]5C)nc(Cl)cc4[nH]3)cc12` [Example 122, 3-{6-chloro-4-[(2R,3S)-3-hydroxy-2-methylpyrrolidin-1-yl]-1H-imidazo[4,5-c]pyridin-2-yl}-5-ethyl-1,6-naphthyridin-2(1H)-one methanesulfonate], in that order: 28 nM and 2.2 nM.
For `CS(=O)(=O)O.[2H]C([2H])([2H])Oc1ccccc1-c1nccc2[nH]c(=O)c(-c3nc4c(N[C@H]5CCOC5)nc(Cl)cc4[nH]3)cc12` [Example 134, 3-{6-chloro-4-[(3S)-tetrahydrofuran-3-ylamino]-1H-imidazo[4,5-c]pyridin-2-yl}-5-(2-[(2H3)methyloxy]phenyl)-1,6-naphthyridin-2(1H)-one methanesulfonate], in that order: 18 nM and 1.1 nM.
For `CCc1nc(Cl)cc2[nH]c(-c3cc4c(-c5ccn(C(F)F)n5)nccc4[nH]c3=O)nc12` [Example 150, 3-(6-chloro-4-ethyl-1H-imidazo[4,5-c]pyridin-2-yl)-5-[1-(difluoromethyl)-1H-pyrazol-3-yl]-1,6-naphthyridin-2(1H)-one methanesulfonate], in that order: 66 nM and 3.6 nM.
`CCc1nc(Cl)cc2[nH]c(-c3cc4c(-c5cc(C)n(C)n5)nccc4[nH]c3=O)nc12` [Example 151, 3-(6-chloro-4-ethyl-1H-imidazo[4,5-c]pyridin-2-yl)-5-(1,5-dimethyl-1H-pyrazol-3-yl)-1,6-naphthyridin-2(1H)-one methanesulfonate]: in test [1] (Mus musculus), the EC50 was found to be 16 nM. For the same compound, at human SMG1 enzyme, the 50% inhibitory concentration (IC50) was found to be 1.5 nM.
